Reference: patent US20230138752A1, “PLASTICIZERS TO IMPROVE RELEASE PERFORMANCE OF AMORPHOUS SOLID DISPERSIONS” (Purdue Research Foundation, priority 2021, published 2023)
Entries after “also recorded” stand apart in the source; their conditions may differ. Where a name gives a salt, the structure may show the parent alone. Read-outs that look alike come from different tables or passages of the source.

Columns and labels:
[1] = API:plasticizer 8:1 miscibility and Tg depression by DSC; type: physicochemical
Experimental: API:plasticizer at a ratio 8:1 was prepared by rotary evaporation to evaluate miscibility and Tg depression produced by the plasticizer. 3 to 5 mg was accurately weighed in an aluminum pan with a hermetic lid with a pinhole. Since the Tg was evaluated after only 1 hour of vacuum drying to avoid crystallization, a second drying was done by employing an isothermal hold at 20° C. in the DSC with nitrogen flow for at least 20 minutes. Then, the sample was cooled to −60 and heated at 2° C./min to 210° C. with a modulation period +/−1° C. every 60 seconds.

[2] = literature; cited from earlier work
[3] = Surface normalized dissolution of ASD tablets (release, limit of congruency); type: physicochemical; conditions: for limit of congruency (LoC) of ATZ-PVPVA ASDs: ASD containing 5% w/w of the plasticizer; for normalized release rate of drug and polymer versus neat PVPVA / increase in LoC of ATZ versus binary ASD: ATZ-PVPVA ASD; for normalized release rate of drug and polymer versus neat PVPVA: ATZ 10 DL+GTA, ATZ 25DL+GTB; for limit of congruency (LoC) of LED-PVPVA ASDs: ASD containing 10% w/w of the plasticizer; for release of LED / total release of LED: LED 10% DL; for increase in LoC of LED versus binary ASD: LED-PVPVA ASD; for dissolution rate of PVPVA containing plasticizer versus neat PVPVA: PVPVA with 10% w/w plasticizer, no drug; for lag time in the release profile: ATZ-PVPVA ASD at the LoC (20% DL TEC, 25% DL TEAC and TBAC)
Experimental: All dissolution experiments were conducted in 50 mM phosphate buffer pH 6.8 prepared by dissolving 3.52 g of sodium phosphate monobasic monohydrate and 3.48 g of sodium phosphate dibasic anhydrous to 1L with Milli-Q water. The pH was adjusted to pH 6.8 if needed using HCl or NaOH.
Surface normalized dissolution was employed to evaluate the release performance of the ASDs and to calculate the normalized release rate. A Hanson Vision G2 dissolution tester with a Vision heater (Teledyne Hanson Chatsworth, CA) was utilized. A tablet was prepared immediately prior to the dissolution test by compressing 100 mg of ASD in an 8 mm die at 2 500 psi for 60 seconds yielding a tablet surface are of 50 mm^2. The temperature was maintained at 37° C., the rotation speed was 100 rpm, and the dissolution medium was 50 mM phosphate buffer pH 6.8 degassed and pre-equilibrated at 37° C. 100 to 200 μl of sample was withdrawn every 5 min for the initial 20 minutes, then every 10 minutes until 60 minutes and finally at 75, 90 and 120 minutes. The medium was replenished after each sample withdrawal to maintain a constant volume.
The concentration of API and polymer during the dissolution was assessed by high performance liquid chromatography (HPLC) using an Agilent 1100 system (Agilent Technologies, Santa Clara, Calif.). An Ascentis® Express C18 10 cm×3 mm with 2.7 μm particle size column (Sigma-Aldrich St. Louis, Mo.) was employed for separation of ATZ, RTV, and LED. […] For ATZ and LED, the mobile phase was aqueous TFA 0.1% v/v:acetonitrile (ACN) 6:4 v/v at a flow rate of 0.5 ml/min, injection volume 10 detection wavelength (X.) 210 nm, and column temperature 40° C. For RTV, the mobile phase was aqueous TFA 0.1% v/v:ACN 6:4 v/v, flow rate 0.5 ml/min, injection volume 10 detection λ 241 nm and column temperature 40° C.
The surface normalized dissolution rate (R) was calculated based on the mg released versus time profile. The slope from cumulative mg release vs time represents the release rate (k). To normalize, k was divided by the tablet surface area (S, 0.5 cm^2) times the fraction of the component (x) (Equation 1)

[4] = Dynamic vapor sorption (DVS), isothermal water sorption; type: physicochemical; conditions: for effect of plasticizer on polymer (PVPVA) water sorption: PVPVA containing GTB or TBC
Experimental: The isothermal water sorption at 37° C. was measured for selected ASDs using a DVS-Advantage device (Surface Measurement System Ltd Allentown, Pa.). Around 5 mg of sample was first dried at 0% relative humidity (RH) and 37° C. for one hour followed by exposure to 95% RH and 37° C. for at least 8 hours. Percent of water sorbed and derivative of percent mass over time (dm/dT %) was analyzed.

[5] = Glass transition temperature (Tg) by DSC; type: physicochemical; conditions: for Tg of the API: neat API (dry Tg); for reduction of ASD Tg on increasing plasticizer from 5 to 10% w/w: LED 10% DL
Experimental: Glass transition temperature and plasticizer-API miscibility was determined using a TA Q2000 differential scanning calorimeter (DSC) (TA Instruments, New Castle, DE) with a refrigerated cooling accessory (RCS) using N2 as the purge gas at a flow of 50 ml/min. For Tg determination, around 5 mg of sample was accurately weighed into an aluminum pan with a Tzero lid and subject to a cool-heat-cool cycle. Samples were cooled at -20° C. and heated up to 220° C. The heating was done in modulated mode at a heating rate of 2° C/min with a modulation period of +/−1° C. every 60 seconds. The midpoint temperature of the heat capacity change in the thermogram from the second heating cycle scan was taken as the Tg. The DSC was calibrated with indium at the appropriate heating rate.

[6] = 20% DL ATZ ternary ASD, 5% w/w plasticizer, 95% RH/37° C.

COC(=O)N[C@H](C(=O)N[C@@H](Cc1ccccc1)[C@@H](O)CN(Cc1ccc(-c2ccccn2)cc1)NC(=O)[C@@H](NC(=O)OC)C(C)(C)C)C(C)(C)C [ATZ, atazanavir]
Tg ([1]; ATZ:plasticizer 8:1 amorphous mix): 105.5 °C | limit of congruency (LoC) of PVPVA-based ASD, reported [2]: ~5 % DL

CC(=O)OCC(CO)OC(C)=O (stereo not shown) [GDA, glycerol diacetate]
limit of congruency (LoC) of ATZ-PVPVA ASDs [3]: 7.5 % DL

CC(=O)OCC(COC(C)=O)OC(C)=O [GTA, Glycerol triacetate]
limit of congruency (LoC) of ATZ-PVPVA ASDs [3]: 10 % DL | normalized release rate of drug and polymer versus neat PVPVA ([3]; 5% w/w plasticizer): faster than that of neat PVPVA

CCCC(=O)OCC(COC(=O)CCC)OC(=O)CCC [GTB, Glycerol tributyrate]
release from RTV-PVPVA ASD ([3]; 30% DL, 5% w/w plasticizer): Complete release | release from RTV-PVPVA ASD ([3]; 35% DL, 5% w/w plasticizer): not at 35% DL | limit of congruency (LoC) of ATZ-PVPVA ASDs [3]: 25 % DL | limit of congruency (LoC) of LED-PVPVA ASDs [3]: 20 % DL | increase in LoC of ATZ versus binary ASD ([3]; 5% w/w plasticizer): 5 fold | normalized release rate of drug and polymer versus neat PVPVA ([3]; 5% w/w plasticizer): faster than that of neat PVPVA | release of LED ([3]; 10% w/w plasticizer): complete drug release | increase in LoC of LED versus binary ASD ([3]; 10% w/w plasticizer): 4 fold | dissolution rate of PVPVA containing plasticizer versus neat PVPVA [3]: as much as twice; also recorded: faster dissolution rate | water uptake versus binary 20% DL ATZ ASD [4, 6]: more prominent increase of water uptake | effect of plasticizer on polymer (PVPVA) water sorption [4]: dramatically reduced

COC(=O)N[C@H](C(=O)N1CC2(CC2)C[C@H]1c1nc(-c2ccc3c(c2)C(F)(F)c2cc(-c4ccc5[nH]c([C@@H]6[C@H]7CC[C@H](C7)N6C(=O)[C@@H](NC(=O)OC)C(C)C)nc5c4)ccc2-3)c[nH]1)C(C)C [LED, ledipasvir]
Tg of the API [5]: 160 °C | Tg ([1]; LED:plasticizer 8:1 amorphous mix): 162 °C | limit of congruency (LoC) of PVPVA-based ASD, reported [2]: ~5 % DL

CC(C)c1nc(CN(C)C(=O)N[C@H](C(=O)N[C@@H](Cc2ccccc2)C[C@H](O)[C@H](Cc2ccccc2)NC(=O)OCc2cncs2)C(C)C)cs1 [RTV, ritonavir, reference compound]
Tg of the API [5]: 50 °C | increase in LoC of RTV versus binary ASD ([3]; RTV-PVPVA ASD with plasticizers GTB and TBC): 1.2 fold | limit of congruency (LoC) of PVPVA-based ASD, reported [2]: 25 % DL

CCCCOC(=O)CC(CC(=O)OCCCC)(OC(C)=O)C(=O)OCCCC [TBAC, Tributyl-o-acetylcitrate]
limit of congruency (LoC) of ATZ-PVPVA ASDs [3]: 25 % DL | lag time in the release profile ([3]; 5% w/w plasticizer): around 20 min

CCCCOC(=O)CC(O)(CC(=O)OCCCC)C(=O)OCCCC [TBC, Tri-n-butyl citrate]
release from RTV-PVPVA ASD ([3]; 30% DL, 5% w/w plasticizer): Complete release | release from RTV-PVPVA ASD ([3]; 35% DL, 5% w/w plasticizer): not at 35% DL | limit of congruency (LoC) of ATZ-PVPVA ASDs [3]: 25 % DL | limit of congruency (LoC) of LED-PVPVA ASDs [3]: 15 % DL | increase in LoC of ATZ versus binary ASD ([3]; 5% w/w plasticizer): 5 fold | release of LED ([3]; 10% w/w plasticizer): complete drug release | increase in LoC of LED versus binary ASD ([3]; 10% w/w plasticizer): 3 fold | dissolution rate of PVPVA containing plasticizer versus neat PVPVA [3]: as much as twice; also recorded: faster dissolution rate | water uptake versus binary 20% DL ATZ ASD [4, 6]: slight increase in water uptake | water uptake at 10, 20 and 30% DL ([4]; ATZ ternary ASD containing 5% w/w TBC): similar | effect of plasticizer on polymer (PVPVA) water sorption [4]: dramatically reduced

CCOC(=O)CC(CC(=O)OCC)(OC(C)=O)C(=O)OCC [TEAC, triethyl acetyl citrate]
reduction of ASD Tg on increasing plasticizer from 5 to 10% w/w [5]: 14 °C | limit of congruency (LoC) of ATZ-PVPVA ASDs [3]: 25 % DL | limit of congruency (LoC) of LED-PVPVA ASDs [3]: 15 % DL | lag time in the release profile ([3]; 5% w/w plasticizer): around 20 min | total release of LED ([3]; 5% w/w plasticizer): 20% | release of LED ([3]; 10% w/w plasticizer): complete drug release | water uptake versus binary 20% DL ATZ ASD [4]: slight increase in water uptake

CCOC(=O)CC(O)(CC(=O)OCC)C(=O)OCC [TEC, triethyl citrate]
reduction of ASD Tg on increasing plasticizer from 5 to 10% w/w [5]: 10 °C | limit of congruency (LoC) of ATZ-PVPVA ASDs [3]: 20 % DL | lag time in the release profile ([3]; 5% w/w plasticizer): around 20 min | total release of LED ([3]; 5% w/w plasticizer): 12% | water uptake versus binary 20% DL ATZ ASD [4, 6]: very similar water uptake as the binary ASD

O=C(O)CC(O)(CC(=O)O)C(=O)O [citric acid]
limit of congruency (LoC) of ATZ-PVPVA ASDs [3]: 7.5 % DL | release of LED ([3]; 5% w/w plasticizer): complete release

OCC(O)CO [glycerol, Glycerol]
limit of congruency (LoC) of ATZ-PVPVA ASDs [3]: 7.5 % DL | increase in LoC of ATZ versus binary ASD ([3]; 5% w/w plasticizer): 1.5 fold

Clc1ccc(COC(Cn2ccnc2)c2ccc(Cl)cc2Cl)c(Cl)c1 (stereo not shown) [miconazole]
limit of congruency (LoC) of PVPVA-based ASD, reported [2]: 25 % DL
